Legend:
B. licheniformis DSM13 = experiment: Disc-diffusion antimicrobial assay, ecologically relevant indicator strains; format: cell-based, Bacillus licheniformis; conditions: Suppl. Table 16, pure compounds 10 mg/mL in DMSO, 5 µl per disc, control Cip 5 µg/mL (HCl), DMSO control 0, n=1
K. rhizophila DSM11926 = experiment: as above; format: cell-based, Kocuria rhizophila; conditions: Suppl. Table 16, pure compounds 10 mg/mL in DMSO, 5 µl per disc, control Cip 5 µg/mL (HCl), DMSO control 0, n=1
[1] = tested on: B. thuringiensis DSM104061; experiment: as above; format: cell-based, Bacillus thuringiensis; conditions: Suppl. Table 16, pure compounds 10 mg/mL in DMSO, 5 µl per disc, control Cip 5 µg/mL (HCl), DMSO control 0, n=1
P. monteilii DSM1388 = experiment: as above; format: cell-based, Pseudomonas monteilii; conditions: Suppl. Table 16, pure compounds 10 mg/mL in DMSO, 5 µl per disc, control Cip 5 µg/mL (HCl), DMSO control 0, n=1
C. albicans SC5314 = experiment: as above; format: cell-based, Candida albicans; conditions: Suppl. Table 16, pure compounds 10 mg/mL in DMSO, 5 µl per disc, control Amph B 10 µg/mL (DMSO/H2O), DMSO control 0, n=1
C. albicans C.A. = experiment: Disc-diffusion antimicrobial assay, clinically relevant indicator strains; format: cell-based; conditions: Amph B 10 µg/mL (DMSO/H2O)
Experimental: (§1) Disc-diffusion antimicrobial activity assays against clinically relevant indicator strains.
(§2) Pure compounds (1 mg/mL in DMSO or 50% MeOH) were tested for their antimicrobial activity against a variety of bacterial and fungal indicator strains: B. subtilis 6633 (Bs), S. aureus SG511 (Sa1), E. coli SG458 (Ec), P. aeruginosa K799/61 (Pa), S. aureus 134/94 (MRSA) (Sa2), E. faecalis 1528 (VRSA) (Ef), Mycobacterium vaccae 10670 (Mv), Sporobomyces salmonicolor 549 (Ss), C. albicans C.A. (Ca), and Penicillium notatum JP36 (Pn). On each disc, 50 µl compound solution (50 µg) were applied. Antimicrobial activity was determined by measuring the inhibition zone surrounding the disc in mm (n=3).
(§3) Bs: B. subtilis 663, Sa1: S. aureus SG511, Ec: E. coli SG458, Pa: P. aeruginosa K799/61, Sa2: S. aureus 134/94 (MRSA), Ef: E. faecalis 1528 (VRSA), Mv: M. vaccae 10670, Ss: S. salmonicolor 549, Ca: C. albicans C.A., Pn: P. notatum JP36. P: colonies in the inhibition zone, p: single colonies in the inhibition zone. A: no to low inhibition, n.t.: not tested.
(§4) B. subtilis 663, Sa1: S. aureus SG511, Ec: E. coli SG458, Ca: C. albicans C.A., P: colonies in the inhibition zone, […]

Penicillium notatum JP36 = experiment: as above; format: cell-based; conditions: Suppl. Table 17, 1 mg/mL in DMSO, 50 µl (50 µg) per disc, Amph B 10 µg/mL (DMSO/H2O), DMSO solvent control itself 12P, n=3
Experimental: as §1, §2, §3, §4

[2] = tested on: Sporobomyces salmonicolor 549; experiment: as above; format: cell-based; conditions: Suppl. Table 17, 1 mg/mL in DMSO, 50 µl (50 µg) per disc, Amph B 10 µg/mL (DMSO/H2O), DMSO solvent control itself 13P, n=3
Experimental: as §1, §2, §3, §4

cruzain = experiment: Fluorimetric protease inhibition assay; format: biochemical, Trypanosoma cruzi; conditions: 200 µM, 10 min, mean ± standard deviation, n=3
cathepsin L = experiment: Fluorimetric protease inhibition assay; format: biochemical; conditions: 200 µM, 10 min, mean ± standard deviation, n=3
cathepsin B = experiment: Fluorimetric protease inhibition assay; format: biochemical; conditions: 200 µM, 10 min, mean ± standard deviation, n=3
DENV2 NS2B-NS3 = experiment: Fluorimetric protease inhibition assay; format: biochemical; conditions: 200 µM, 10 min, mean ± standard deviation, n=3
urokinase (uPA) = experiment: Fluorimetric protease inhibition assay; format: biochemical; conditions: 200 µM, 10 min, mean ± standard deviation, n=3
P. aeruginosa K799/61 = conditions: Suppl. Table 17; disc diffusion; 1 mg/mL in DMSO, 50 µl (50 µg) per disc; Cip 5 µg/mL (H2O/HCl); DMSO solvent control itself 12P; n=3
rhodesain = conditions: 200 µM
SARS-CoV2 Mpro = conditions: 200 µM; fluorimetric, 10 min; mean ± standard deviation, n=3
SARS-CoV PLpro = conditions: 200 µM; fluorimetric, 10 min; mean ± standard deviation, n=3
ZIKV NS2B-NS3 = conditions: 200 µM
sortase A (SrtA) = conditions: 200 µM
B. subtilis 6633 = experiment: Disc-diffusion antimicrobial assay, clinically relevant indicator strains; conditions: Suppl. Table 17, 1 mg/mL in DMSO, 50 µl (50 µg) per disc, Cip 5 µg/mL (H2O/HCl), DMSO solvent control itself 12P, n=3
S. aureus SG511 = experiment: as above; conditions: Suppl. Table 17, 1 mg/mL in DMSO, 50 µl (50 µg) per disc, Cip 5 µg/mL (H2O/HCl), DMSO solvent control itself 11P, n=3
E. coli SG458 = experiment: as above; conditions: Suppl. Table 17, 1 mg/mL in DMSO, 50 µl (50 µg) per disc, Cip 5 µg/mL (H2O/HCl), DMSO solvent control itself 12P, n=3
S. aureus 134/94 (MRSA) = experiment: as above; conditions: Suppl. Table 17, 1 mg/mL in DMSO, 50 µl (50 µg) per disc, Cip 5 µg/mL (H2O/HCl), DMSO solvent control 0, n=3
E. faecalis 1528 = experiment: as above; conditions: Suppl. Table 17, 1 mg/mL in DMSO, 50 µl (50 µg) per disc, Cip 5 µg/mL (H2O/HCl), DMSO solvent control itself 12p, n=3
[3] = tested on: Mycobacterium vaccae 10670; experiment: as above; conditions: Suppl. Table 17, 1 mg/mL in DMSO, 50 µl (50 µg) per disc, Cip 5 µg/mL (H2O/HCl), DMSO solvent control itself 11P, n=3
[4] = Suppl. Table 17, disc diffusion, 1 mg/mL in DMSO, 50 µl (50 µg) per disc, DMSO solvent control 0, n=3

Pachycephalamide E [Compound 5]
inhibition zone, Bl (B. licheniformis DSM13): 0 mm | inhibition zone, Kr (K. rhizophila DSM11926): 7 mm | inhibition zone, Bt [1]: 0 mm | inhibition zone, Pm (P. monteilii DSM1388): 0 mm | inhibition zone, Ca2 (C. albicans SC5314): 0 mm | inhibition zone, Ca (C. albicans C.A.; [4]): 0 mm | inhibition zone, Pn (Penicillium notatum JP36): 14p | inhibition zone, Ss [2]: 19p | Protease inhibition rate, Cruzain (cruzain): 43.80 ± 2.31% | Protease inhibition rate, Cathepsin L (cathepsin L): 47.31 ± 2.53% | Protease inhibition rate, Cathepsin B (cathepsin B): 47.52 ± 9.52% | Protease inhibition rate, DENV2 (DENV2 NS2B-NS3): 19.02 ± 6.12% | Protease inhibition rate, uPA (urokinase (uPA)): 0 ± 0% | inhibition zone, Pa (P. aeruginosa K799/61): 17P | Protease inhibition rate, Rhodesain (rhodesain): 48.22 ± 1.63 | Protease inhibition rate, Mpro (SARS-CoV2) (SARS-CoV2 Mpro): 14.75 ± 7.06% | Protease inhibition rate, PLpro (SARS-CoV) (SARS-CoV PLpro): 0 ± 0% | Protease inhibition rate, ZIKV (ZIKV NS2B-NS3): 22.71 ± 1.47 | Protease inhibition rate, SrtA (sortase A (SrtA)): 17.94 ± 1.28 | inhibition zone, Bs (B. subtilis 6633): 0 mm | inhibition zone, Sa1 (S. aureus SG511): 0 mm | inhibition zone, Ec (E. coli SG458): 15P | inhibition zone, Sa2 (S. aureus 134/94 (MRSA)): 0 mm | inhibition zone, Ef (E. faecalis 1528): 13p

Pachycephalamide D [Compound 4]
inhibition zone, Bl (B. licheniformis DSM13): 0 mm | inhibition zone, Kr (K. rhizophila DSM11926): 0 mm | inhibition zone, Bt [1]: 0 mm | inhibition zone, Pm (P. monteilii DSM1388): 0 mm | inhibition zone, Ca2 (C. albicans SC5314): 0 mm | inhibition zone, Ca (C. albicans C.A.; [4]): 0 mm | inhibition zone, Pn (Penicillium notatum JP36): 12p | inhibition zone, Ss [2]: 25p | Protease inhibition rate, Cruzain (cruzain): 73.97 ± 1.54% | Protease inhibition rate, Cathepsin L (cathepsin L): 78.67 ± 2.19% | Protease inhibition rate, Cathepsin B (cathepsin B): 73.50 ± 4.05% | Protease inhibition rate, DENV2 (DENV2 NS2B-NS3): 33.81 ± 3.08% | Protease inhibition rate, uPA (urokinase (uPA)): 0.56 ± 0.90% | inhibition zone, Pa (P. aeruginosa K799/61): 18P | Protease inhibition rate, Rhodesain (rhodesain): 72.76 ± 1.07 | Protease inhibition rate, Mpro (SARS-CoV2) (SARS-CoV2 Mpro): 24.32 ± 2.62% | Protease inhibition rate, PLpro (SARS-CoV) (SARS-CoV PLpro): 2.05 ± 2.29% | Protease inhibition rate, ZIKV (ZIKV NS2B-NS3): 35.04 ± 1.21 | Protease inhibition rate, SrtA (sortase A (SrtA)): 28.78 ± 4.59 | inhibition zone, Bs (B. subtilis 6633): 0 mm | inhibition zone, Sa1 (S. aureus SG511): 0 mm | inhibition zone, Ec (E. coli SG458): 13P | inhibition zone, Sa2 (S. aureus 134/94 (MRSA)): 0 mm | inhibition zone, Mv [3]: 0 mm

C[C@@H]1[C@H](O)[C@@H](C)/C=C/C=C/C=C/C=C/C=C/C=C/C=C/[C@H](O[C@@H]2O[C@H](C)[C@@H](O)[C@H](N)[C@@H]2O)C[C@@H]2O[C@](O)(C[C@@H](O)C[C@@H](O)[C@H](O)CC[C@@H](O)C[C@@H](O)CC(=O)O[C@H]1C)C[C@H](O)[C@H]2C(=O)O [Amph B, Amphotericin B, reference compound]
inhibition zone, Ca2 (C. albicans SC5314): 20 mm | inhibition zone, Ca (C. albicans C.A.; [4]): 20 mm | inhibition zone, Ca (C. albicans C.A.; Suppl. Table 18, compound mixtures, total conc. 1 mg/mL in 50% MeOH, solvent control 0, n=1): 21 mm | inhibition zone, Pn (Penicillium notatum JP36): 18p | inhibition zone, Ss [2]: 17p

From PMC11446937, “Bacteria from the Amycolatopsis genus associated with a toxic bird secrete protective secondary metabolites” (Nature Communications, 2024)
